Data from patent US20250115595A1, “INHIBITORS OF HYPOXIA-INDUCIBLE FACTORS” (The Johns Hopkins University, priority 2021, published 2025).
pIC50: −log10 of the molar value.

Tests used:
[1] = system: HIF-regulated angiogenic genes; test: mRNA expression in hypoxic HUVECs; assay type: cell-based, human; conditions: 1 or 10 μM, 4 hours
From the text: Vascular endothelial cells also secrete angiogenic mediators that contribute to the progression of diabetic eye disease (Y. Qin et al., Sci Adv 8, eabm1896 (2022)). Exposure of human umbilical vein endothelial cells (HUVECs) to hypoxia induced HIF-1α and HIF-2α protein accumulation, which was inhibited by 32-134D (FIG. 30). […] Of note, ANGPT2 and VE-PTP, two emerging targets for the treatment of diabetic eye disease, are both expressed specifically by vascular cells (G. Fachinger, et al., Oncogene 18, 5948-5953 (1999); P. C. Maisonpierre et al., Science 277, 55-60 (1997)).
(§1) Reverse transcription and quantitative real-time PCR: Total RNA was isolated from cultured cells or retinas with PureLink™ RNA Mini Kit (Invitrogen #12183025), and cDNA was prepared with MuLV Reverse Transcriptase (Applied Biosystems). Quantitative real-time PCR was performed with Power SYBR Green PCR Master Mix (Applied Biosystems) and MyiQ Real-Time PCR Detection System (Bio-Rad). Normalization was done using cyclophilin A for mouse tissue and human cell lines.

VEGF and ANGPTL4 mRNA = test: mRNA expression in hypoxic MIO-M1 cells; assay type: cell-based, human; conditions: hypoxia, 10 μM
Description: (§2) It has previously been reported that the cells in the inner nuclear layer of the retina that express VEGF in response to hypoxia/ischemia are Müller glial cells (X. Xin et al., Proc Natl Acad Sci USA 110, E3425-3434 (2013)). […] The effects of 32-134D on HIF-1α accumulation persisted up to 16 hours after treatment of cultured cells (FIG. 27B).
as §1

HIF-1α = target: T1, HIF-1α (Homo sapiens, UniProt Q16665); test: Immunoblot of HIF-1α accumulation in hypoxic MIO-M1 cells; assay type: cell-based
T1 construct: endogenous in cells; host or cells: MIO-M1 (immortalized human Müller glial cell line), hypoxia
Description: as §2
Pharmacokinetic analysis of 32-134D in the neurosensory retina following intraocular administration was determined by liquid chromatography and tandem mass spectrometry (LC-MS/MS) to quantify the concentration of 32-134D in retinal tissue over 14 days following a single 70-ng intraocular injection of 32-134D (see Methods of all parameters). […] The total exposure (area under the curve or AUClast) was 72.3 nmol*day/g.
Cells culture and reagents: MIO-M1 cells were a gift from Dr. Astrid Limb (University College London, Institute of Ophthalmology, London, United Kingdom). MIO-M1 and HUVEC cells were cultured in DMEM with 10% (vol/vol) FBS (Quality Biological) and 1% penicillin/streptomycin (Cellgro). Hypoxia chambers were used to expose cells. Evans Blue (E2129) was purchased from Sigma-Aldrich.
Immunoblot assays and ELISAs: Cell, neurosensory retina, and D120 retinal organoid lysates were subjected to 4-15% gradient SDS/PAGE (Invitrogen). […]

T1 sequence (Q16665 whole entry): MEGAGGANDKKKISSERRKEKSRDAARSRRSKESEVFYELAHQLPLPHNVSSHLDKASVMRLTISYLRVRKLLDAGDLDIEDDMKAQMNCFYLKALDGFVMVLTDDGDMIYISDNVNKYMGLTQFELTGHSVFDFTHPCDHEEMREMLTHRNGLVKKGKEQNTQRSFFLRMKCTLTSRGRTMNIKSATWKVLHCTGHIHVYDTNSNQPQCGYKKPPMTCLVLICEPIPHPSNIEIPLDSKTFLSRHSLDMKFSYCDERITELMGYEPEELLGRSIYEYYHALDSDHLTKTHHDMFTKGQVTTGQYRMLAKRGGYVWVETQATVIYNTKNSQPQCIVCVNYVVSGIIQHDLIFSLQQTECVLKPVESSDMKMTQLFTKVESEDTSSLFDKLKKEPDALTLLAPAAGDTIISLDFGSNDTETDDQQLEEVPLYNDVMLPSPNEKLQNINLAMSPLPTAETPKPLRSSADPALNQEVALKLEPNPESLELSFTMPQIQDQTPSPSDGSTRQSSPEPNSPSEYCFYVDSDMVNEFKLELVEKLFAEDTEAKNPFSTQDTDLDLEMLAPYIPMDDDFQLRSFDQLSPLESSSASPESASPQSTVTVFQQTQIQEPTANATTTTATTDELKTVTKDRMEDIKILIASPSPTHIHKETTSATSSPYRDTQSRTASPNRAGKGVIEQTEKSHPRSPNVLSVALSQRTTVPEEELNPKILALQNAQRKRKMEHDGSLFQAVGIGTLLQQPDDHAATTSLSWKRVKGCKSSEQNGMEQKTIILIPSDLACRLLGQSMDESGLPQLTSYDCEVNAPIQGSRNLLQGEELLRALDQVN

Brc1ccc2c(-c3csc(-c4c[nH]c5c(Br)cccc45)n3)c[nH]c2c1 [Compound 32-134D, 4-(6-bromo-1H-indol-3-yl)-2-(7-bromo-1H-indol-3-yl)thiazole]
hypoxia-increased ANGPT2 and VEPTP mRNA expression [1]: inhibited
hypoxia-induced VEGF and ANGPTL4 mRNA expression [1]: effectively inhibited
mRNA expression of VEGF and ANGPTL4 (VEGF and ANGPTL4 mRNA): potent inhibition
persistence of effect on HIF-1α accumulation after treatment (HIF-1α; 10 μM): up to 16 hours
pIC50 (HIF-1α; hypoxia 4 hours, quantitation of immunoblots, read-out: IC50 of HIF-1α protein accumulation): 5.46
